Data set [1] concerns SNI-induced neuropathic pain C57/BJ6 mice. Description: SNI-induced neuropathic pain mouse model, mechanical pain threshold (PWT) by Von Frey. Type of data set: in vivo. How it is done: C57/BJ6 mice aged 5-6 weeks were purchased from Shanghai SLAC Laboratory Animal Co., Ltd and fed for 6 months. After that, the mice were placed in a transparent plexiglass chamber on an iron support. 30 minutes later, the baseline mechanical threshold (paw withdrawal threshold, PWT) of the mice was detected by Von Frey (DanMicGlobal, CA, USA). The average threshold of the mice was 1.54+0.07 g (see FIG. 1). The spared nerve injury (SNI)-induced neuropathic pain C57/BJ6 mouse model was established according to Pertin, M et al (Pertin, M., Gosselin, RD., Decosterd, I. (2012). The Spared Nerve Injury Model of Neuropathic Pain. In: Luo, Z. (eds) Pain Research. Methods in Molecular Biology, vol 851. Humana Press). The SNI-induced neuropathic pain mice were measured for the mechanical pain threshold using Von Frey respectively at 2 weeks, 4 weeks and 6 weeks post operation.
The mechanical pain threshold of mice was tested 1 hour after injection. […] Among them, the mice with poor response (ΔPWT≤ 0.2 g) accounted for 10% (2/20) of all tested mice.
20 μg/kg GNE-0439 and 90 μg/kg PF-04885614 were intraperitoneally injected into SNI mice at 6 weeks post operation. One hour later, the mechanical threshold of mice was measured using Von Frey.

Data set [2] is described as follows: Side effects observed in SNI mice after intraperitoneal injection.
Data set [3] deals with neuropathic pain patients. Conditions: clinical use; cited from earlier work.
Data set [4] deals with subjects with painful diabetic peripheral neuropathy. Conditions: randomised, placebo-controlled, double-blind clinical study; cited from earlier work.

“Also recorded” adds a separate entry of the source.

`CCCC1CCC(c2ccc(C(=O)N[C@H](C(=O)O)C(C)C)cc2)CC1` (stereo partly shown) [GNE-0439] came in with a ΔPWT in data set [1] (single administration, 20 μg/kg i.p., SNI mice 6 weeks post operation, one hour after injection) of 0.77 ± 0.14 g.

On to `NCC1(CC(=O)O)CCCCC1` [Gabapentin], for which the side effects entry in data set [2] (100 mg/kg Gabapentin) was “sedative side effects”. Also, the “accompanying side effects in patients” value in data set [3] is “sedation effects (such as drowsiness, fatigue and dizziness)”. In data set [1] (100 mg/kg i.p., 6 weeks post operation), the “effect on mechanical pain of SNI mice” value was “relieve effect”.

`COc1ccc(Cl)c(-c2ccc(NC(=O)c3ccnn3C)nc2N)c1` [PF-04531083]: the side effects entry in data set [2] (10 mg/kg PF-04531083 (effective dose)) is “obvious side effects such as sedation and weight loss; also recorded: significant side effects such as sedation and weight loss”.

Regarding `CC(C)(N)c1ncc(-c2ccc(OC(F)(F)F)cc2)[nH]1` [PF-04885614], the “mice with poor response (ΔPWT≤0.2 g)” value was 11.1% in data set [1] (45 μg/kg i.p., 2 weeks post operation (2/18)); 52.6% in data set [1] (45 μg/kg i.p., 4 weeks post operation (10/19)); 76.5% in data set [1] (45 μg/kg i.p., 6 weeks post operation (13/17)). The “threshold increase compared with the control group” value in data set [1] (45 μg/kg i.p., 4 weeks post operation) is “no statistically significant difference”. Further, the “increase of mechanical pain threshold (ΔPWT)” value in data set [1] (45 μg/kg i.p., SNI mice 2 weeks post operation) is on record as 0.86 ± 0.14 g; in data set [1] (45 μg/kg i.p., SNI mice 4 weeks post operation), 0.21 ± 0.04 g; in data set [1] (45 μg/kg i.p., SNI mice 6 weeks post operation), 0.10 ± 0.04 g. Besides, the “fraction of PF-05089771 poor responders that well responded” value in data set [1] (90 μg/kg PF-04885614, 6 weeks post SNI operation) is “half”.

As to `Nc1n[nH]cc1-c1cc(Cl)ccc1Oc1cc(F)c(S(=O)(=O)Nc2cscn2)cc1Cl` [PF-05089771], the “efficacy in treatment of diabetic neuropathic pain” value in data set [4] is “poor efficacy”. Also, the “mice with poor response (ΔPWT≤0.2 g)” value in data set [1] (2 mg/kg i.p., 2 weeks post operation (2/20)) was 10%; in data set [1] (2 mg/kg i.p., 4 weeks post operation (10/24)), 41.7%; in data set [1] (2 mg/kg i.p., 6 weeks post operation (16/28)) it was 57.1%. For the same compound, the “increase of mechanical pain threshold (ΔPWT)” value in data set [1] (2 mg/kg i.p., SNI mice 2 weeks post operation, 1 hour after injection) stood at 0.77 ± 0.10 g; in data set [1] (2 mg/kg i.p., SNI mice 4 weeks post operation, 1 hour after injection) it was 0.39 ± 0.07 g; in data set [1] (2 mg/kg i.p., SNI mice 6 weeks post operation, 1 hour after injection) it was 0.17 ± 0.03 g. In addition, in data set [1] (2 mg/kg, 6 weeks post SNI operation (8/12, Table 1)), the “fraction of total mice that poorly responded (ΔPWT≤0.2 g)” value is reported as 2/3.

`CC(C)C[C@H](CN)CC(=O)O` [Pregabalin]: in data set [3], the “accompanying side effects in patients” value was “sedation effects (such as drowsiness, fatigue and dizziness)”.
